Measured values taken from patent publication US8722013B2, “Use of R(+)-alpha-lipoic acid for cryptogenic neuropathy” (Encrypta GmbH, priority 2007, dated 2014).
Counter-ions that a name gives are not always drawn.

How the values were obtained:
cryptogenic neuropathy [1] = test: Case reports: patients with cryptogenic neuropathy treated with R-LA; assay type: in vivo, human
Protocol: A patient with cryptogenic neuropathy was treated with an agent according to the present invention. For that purpose a daily oral dose of 50 mg of R-LA (s.d.) was given over a time period of 8 weeks in a customary multivitamin presentation form. The disease is presented by a loss of sensory perception in the feet and a severe impairment of perspiration.
A patient with cryptogenic neuropathy was treated with an agent according to the present invention. For that purpose a daily oral dose of 50 mg of R-LA (s.d.) was given over a time period of 12 weeks.
A patient with cryptogenic neuropathy was treated with an agent according to the present invention. For that purpose 50 mg of R-LA (s.d.) in an oral multivitamin preparation together with γ-linolenic acid was given. The administration was at first 2 times a day for 6 weeks and then 1 time a day. The lost sensation in the tips of the fingers and toes (Semmes Weinstein monofilament) recovered after 4 weeks.
A patient with cryptogenic neuropathy was treated with an agent according to the present invention. For that purpose a daily oral dose of 100 mg of R-LA as Na salt was given over a time period of 8 weeks. The incontinence and also the control over the bladder were improved after 3 weeks.
A patient with cryptogenic neuropathy was treated with an agent according to the present invention. For that purpose at first a dose of 300 mg of R-LA (Na salt) was given 1 time a day over a time period of 2 weeks and then a dose of 100 mg was given 1 time a day over a time period of 6 weeks. Due to inconsequent taking of the dose on average the agent was only administered every second day. The dryness of the eyes has not changed during the first 3 weeks, but after 4 weeks the use of eye drops was reduced.
A patient with cryptogenic neuropathy was treated with an agent according to the present invention. For that purpose at first a daily oral dose of 100 mg of R-LA was given over a time period of one week and then a reduction to a dose of 50 mg for 6 weeks with continuous co-medication of gabapentin followed.
A patient with cryptogenic neuropathy was treated with an agent according to the present invention. For that purpose at first a daily oral dose of 100 mg of R-LA was given over a time period of two weeks. Then a reduction to a dose of 50 mg followed which was continued over 3 weeks. Subsequently the treatment was continued with the administration of 25 mg over further 3 weeks. […] Sharp pain which occurred occasionally was unchanged.
A patient with cryptogenic neuropathy was treated with an agent according to the present invention. For that purpose at first a daily oral dose of 100 mg of R-LA was given over a time period of four weeks. Then an anti-oxidative multivitamin preparation together with 50 mg of R-LA was given over 4 weeks.
A patient with cryptogenic neuropathy was treated with an agent according to the present invention. For that purpose at first a daily oral dose of 50 mg of R-LA was given over a time period of six weeks. Then an anti-oxidative multivitamin preparation without R-LA was given orally over 4 weeks. The patient suffered from numbness and the loss of sensory perception in the lower limbs. Due to a possible immunologic background ibuprofen was given as a long-term medication. […] The heart pains during stair climbing disappeared.
A patient with cryptogenic neuropathy was treated with an agent according to the present invention. For that purpose a daily dose of 300 mg of R-LA was given over a time period of four weeks together with a continued administration of a vitamin B-combination medication. […] Stomach pain and feeling of abdominal fullness were improved at the end of that period.
A patient with cryptogenic neuropathy was treated with an agent according to the present invention. For that purpose a daily oral dose of 400 mg of R-LA (K salt) was given over a time period of one week. […] 3 months later a formulation of 100 mg (Na salt) was given. […]

cryptogenic neuropathy [2] = settings: in vivo; cited from earlier work
diabetic polyneuropathy = settings: cited from earlier work
uremic neuropathy = settings: cited from earlier work
[3] = Example 1, 50 mg daily oral (s.d.) in multivitamin presentation form, after 8 weeks
[4] = Example 9, 50 mg daily oral over six weeks, ibuprofen long-term medication
[5] = Example 11, 400 mg daily oral (K salt) over one week

With O=C(O)CCCC[C@@H]1CCSS1 [R-LA, (R)-5-(1,2-dithiolan-3-yl)valeric acid] the perspiration (cryptogenic neuropathy [1]; [3]) was “moderately improved”, the “sensory perception in the feet” value (cryptogenic neuropathy [1]; [3]) was “moderately improved” and the “feeling of burning and tingling in the feet and hands” value (cryptogenic neuropathy [1]; Example 2, 50 mg daily oral (s.d.) over 12 weeks) was “improved moderately”. For the same compound, the “symptoms after the termination of the treatment” value (cryptogenic neuropathy [1]; Example 2, after 12 weeks of 50 mg daily oral) was “became worse again”, the “lost sensation in the tips of the fingers and toes (Semmes Weinstein monofilament)” value (cryptogenic neuropathy [1]; Example 3, 50 mg in oral multivitamin preparation with γ-linolenic acid, 2 times a day, after 4 weeks) was “recovered” and the “function improvement on halving of the dose” value (cryptogenic neuropathy [1]; Example 3, 2 times a day for 6 weeks, then 1 time a day) was “not influenced”. For the same compound, the “neurological pain in the feet” value (cryptogenic neuropathy [1]; Example 6, 100 mg daily oral for one week, then 50 mg for 6 weeks, co-medication of gabapentin) was “unchanged”, the “perception of pain stimulus with a needle at the feet” value (cryptogenic neuropathy [1]; Example 6, 100 mg for one week, then 50 mg, gabapentin co-medication, after 3 weeks, not perceived at first) was “perceived moderately” and the “feeling of burning in the feet” value (cryptogenic neuropathy [1]; Example 7, 100 mg daily oral for two weeks, then 50 mg, after 3 weeks) was “improved from severe to moderate”. For the same compound, the “sharp pain which occurred occasionally” value (cryptogenic neuropathy [1]; Example 7, 100 mg for 2 weeks, 50 mg for 3 weeks, 25 mg for 3 weeks) was “unchanged”, the “feeling of burning in the feet” value (cryptogenic neuropathy [1]; Example 7, 100 mg for two weeks, then 50 mg for 3 weeks, after 5 weeks) was “disappeared completely” and the “feeling of burning in the feet” value (cryptogenic neuropathy [1]; Example 8, 100 mg daily oral, after 2 weeks) was “improved from severe to moderate”. For the same compound, the “feeling of burning in the feet” value (cryptogenic neuropathy [1]; Example 8, 100 mg for four weeks, then anti-oxidative multivitamin preparation with 50 mg, after 6 weeks) was “became worse again”, the “heart pains during stair climbing” value (cryptogenic neuropathy [1]; [4]) was “disappeared” and the numbness (cryptogenic neuropathy [1]; [4]) was “unchanged”. For the same compound, the “sensory perception in the lower limbs” value (cryptogenic neuropathy [1]; Example 9, 50 mg daily oral, ibuprofen long-term medication, after 3 weeks, then stable) was “improved from severe to moderate”, the “sensory perception after termination of R-LA” value (cryptogenic neuropathy [1]; Example 9, 3 weeks after the termination of the administration) was “became worse again” and the “perception of pain stimulus at the feet by means of a sharp needle” value (cryptogenic neuropathy [1]; Example 10, 300 mg daily with vitamin B-combination medication, after 2 weeks) was “perceived again”. For the same compound, the “stomach pain and feeling of abdominal fullness” value (cryptogenic neuropathy [1]; Example 10, 300 mg daily with vitamin B-combination medication, at the end of four weeks) was “improved”, the “dryness at the feet” value (cryptogenic neuropathy [1]; Example 12, 100 mg twice a day, after 2 weeks) was “improved” and the “dryness at the hands” value (cryptogenic neuropathy [1]; Example 12, 100 mg twice a day, after 3 weeks) was “improved”.

In the case of C[C@]12CCC(=O)C=C1CC[C@@H]1[C@@H]2C(=O)C[C@@]2(C)[C@H]1CC[C@]2(O)C(=O)CO [cortisone], the “outcome of therapy of cryptogenic neuropathy” value (cryptogenic neuropathy [2]) is listed as “unsuccessful”.

For O=C(O)CCCC[C@@H]1CCSS1 [R-LA (K salt)], the “hyperhidrosis at the face” value (cryptogenic neuropathy [1]; [5]) was “not disappeared” and the “sensory perception in the lower limbs” value (cryptogenic neuropathy [1]; [5]) was “improved from severe to moderate”.

In the case of O=C(O)CCCC[C@@H]1CCSS1 [R-LA (Na salt)], the “incontinence and control over the bladder” value (cryptogenic neuropathy [1]; Example 4, 100 mg daily oral as Na salt, after 3 weeks) is reported as “improved”, the chronic obstipation (cryptogenic neuropathy [1]; Example 4, 100 mg daily oral as Na salt, after 5 weeks) is reported as “no longer a problem” and the stool frequency (cryptogenic neuropathy [1]; Example 4, 100 mg daily oral as Na salt, after 5 weeks, 2 to 3 times a week before) is reported as 5 times a week. The “dryness of the eyes” value (cryptogenic neuropathy [1]; Example 5, 300 mg 1 time a day for 2 weeks, then 100 mg for 6 weeks (on average taken every second day), first 3 weeks) was “not changed”, the “feeling of burning in the feet” value (cryptogenic neuropathy [1]; Example 5, 300 mg for 2 weeks, then 100 mg, after 3 weeks) was “reduced after 3 weeks (from severe to moderate)” and the “use of eye drops” value (cryptogenic neuropathy [1]; Example 5, 300 mg for 2 weeks, then 100 mg, after 4 weeks) was “reduced”. The “feeling of burning in the feet” value (cryptogenic neuropathy [1]; Example 5, during the weeks following week 3) was “unchanged”.

For O=C(O)CCCCC1CCSS1 (racemic) [rac-LA, 5-(1,2-dithiolan-3-yl)valeric acid], the “efficacy in controlled clinical trials” value (diabetic polyneuropathy; human, in vivo) is given as “negative”, the “efficacy in first short-time pilot study (ALADIN Study)” value (diabetic polyneuropathy; i.v. treatment, 3-week multicentre randomized controlled trial) is given as “verified the historic impressions of the efficacy” and the neuropathic deficits (diabetic polyneuropathy; oral long-term therapy) is given as “appeared to deteriorate”. For the same compound, the “efficacy in pivotal placebo-controlled double-blind multicentre trials (ALADIN II, ALADIN III)” value (diabetic polyneuropathy; short-term use (i.v.) or long-term use (p.o.)) was “could not be reproduced” and the “result of first clinical trial” value (uremic neuropathy) was “negative results”.
